Laboratory results published in article PMC4579641 (BMC Complementary and Alternative Medicine, 2015).
Converted amounts (≈) assume the structure as drawn. Like-named read-outs stand apart in the source and are kept apart here.

Experiments:
[1] = tested on: Mycobacterium bovis AN5; assay: microbe, parasite or virus in culture; type: cell-based; settings: for MIC: Mycobacterium tuberculosis variant bovis, AN5, 168 h, read-out: Antimycobacterial activity, M. bovis MIC; for Antimycobacterial activity, M. bovis MIC: AN5 strain, Alamar Blue, 7 days incubation, average and standard deviation of triplicate assays
[2] = tested on: Mycobacterium tuberculosis H37Rv; assay: Minimum Inhibitory Concentration by the Alamar Blue technique, M. tuberculosis; type: cell-based; settings: for MIC: Mycobacterium tuberculosis, 168 h, read-out: Antimycobacterial activity, M. tuberculosis MIC
[3] = Cytotoxic activity on macrophages, alamar blue; type: cell-based, mouse; settings: mouse, J774A monocyte macrophage cell line; J774 macrophages, 24 h; average and standard deviation of three assays
Description: (§1) The J774A mouse monocyte macrophage cell line was grown in RPMI medium (Sigma, R0883) supplemented with 10 % heat inactivated fetal bovine serum (FBS, Sigma-Aldrich), 1 % MEM-NEAA medium (Gibco, 11140–050) and a mixture of penicillin-streptomycin to 1 %. The cell culture was maintained at 37 °C with a partial atmosphere of 5 % CO2, the evaluations were carried out when 80–90 % confluence was reached.
(§2) In a 96 well plate 50,000 cells per well were deposited in a final volume of 100 μL, and incubated for 24 h at 37 °C in partial CO2 atmosphere to promote cell adhesion for an approximate 80 % confluence. Chemical compounds to be analyzed were diluted in DMSO; cytotoxic activity was evaluated by adding twofold serial dilutions of the compound to be analyzed, starting at a 1600 μg/mL concentration; the plates were further incubated (24 h). For cytotoxic evaluation, alamar blue (Sigma, R7017) solution was added (10 % v/v) and after 3 h, results were evaluated by determination of the change in color using a fluorimeter (590 nm). For negative control, cells were incubated with 500 μg/mL concentration of DMSO (Sigma, 472301), which was the highest concentration. Cytotoxic concentration (CC50) was determined using probit non-linear regression.

[4] = tested on: J774A mouse monocyte macrophage cell line; assay: Cytotoxic activity on macrophages, alamar blue; type: cell-based; settings: J774A CC50 versus mycobacterial MIC
Description: as §1, §2

[5] = tested on: M. tuberculosis; parameters: method as in PMID 17924309; settings: cited from earlier work
[6] = H37Rv strain, Alamar Blue, 7 days incubation, average and standard deviation of triplicate assays

Compound	MIC [1]	MIC [2, 6]	also measured
COc1ccc(C=O)cc1 [p-Anisaldehyde]	10.4 ± 3.61 µg/mL (≈ 76.5 µM)	4.16 ± 1.81 µg/mL (≈ 30.6 µM)	
C=CC(=C)CCC=C(C)C [Myrcene]	33.3 ± 14.4 µg/mL (≈ 245 µM)	25 µg/mL (≈ 184 µM)	Antimycobacterial activity, M. tuberculosis MIC [2, 6]: 25.00 ± 0.00^CDEF μg/mL
C=C1CCC2CC1C2(C)C (stereo not drawn) [β-pinene]	41.7 ± 14.4 µg/mL (≈ 306 µM)	10.4 ± 3.61 µg/mL (≈ 76.4 µM)	
CO[C@H]1/C=C/O[C@@]2(C)Oc3c(C)c(O)c4c(O)c(c(/C=N/N5CCN(C)CC5)c(O)c4c3C2=O)NC(=O)/C(C)=C\C=C\[C@H](C)[C@H](O)[C@@H](C)[C@@H](O)[C@@H](C)[C@H](OC(C)=O)[C@@H]1C [Rifampicin, reference compound]	0.5 ± 0.01 µg/mL (≈ 0.608 µM)	0.6 ± 0.14 µg/mL (≈ 0.729 µM)	
CC1CCC(C(C)C)C(O)C1 (centres unmarked) [Menthol]	83.3 ± 14.4 µg/mL (≈ 533 µM)	41.7 ± 14.4 µg/mL (≈ 267 µM)	CC50 at 24 h [3]: 1450 ± 180 µg/mL (≈ 9280 µM); CC90 at 24 h [3]: 2600 ± 304 µg/mL (≈ 16600 µM)
CC12CCC(CC1)C(C)(C)O2 [Eucalyptol]	41.7 ± 14.4 µg/mL (≈ 270 µM)	41.7 ± 14.4 µg/mL (≈ 270 µM)	
CC1=CCC(=C(C)C)CC1 [Terpinolene]	33.3 ± 14.4 µg/mL (≈ 245 µM)	8.33 ± 3.61 µg/mL (≈ 61.1 µM)	
O=C/C=C/c1ccccc1 [Cinnamaldehyde]	12.5 µg/mL (≈ 94.6 µM)	3.12 µg/mL (≈ 23.6 µM)	Antimycobacterial activity, M. bovis MIC [1]: 12.50 ± 0.00^DE μg/mL; Antimycobacterial activity, M. tuberculosis MIC [2, 6]: 3.12 ± 0.00^EFG μg/mL
Cc1ccc(C(C)C)cc1O [Carvacrol]	5.2 µg/mL (≈ 34.6 µM)	2.02 µg/mL (≈ 13.4 µM)	Antimycobacterial activity, M. bovis MIC [1]: 5.20 ± 1.81^DE μg/mL; CC50 concentration higher than the concentration needed for mycobacterial elimination [4]: approximately 500 fold; CC50 at 24 h [3]: 900 ± 86.6 µg/mL (≈ 5990 µM); CC90 at 24 h [3]: 1950 ± 107 µg/mL (≈ 13000 µM); Antimycobacterial activity, M. tuberculosis MIC [2, 6]: 2.02 ± 0.88^FG μg/mL
CC1=CCC2C(C1)C2(C)C (centres unmarked) [3-Carene]	33.3 ± 14.4 µg/mL (≈ 245 µM)	16.7 ± 7.22 µg/mL (≈ 122 µM)	
C=C1CC/C=C(\C)CC[C@@H]2[C@@H]1CC2(C)C [β-Caryophyllene]	100 µg/mL (≈ 489 µM)	100 µg/mL (≈ 489 µM)	
NNC(=O)c1ccncc1 [Isoniazid, reference compound]	0.16 ± 0.3 µg/mL (≈ 1.17 µM)		MIC ([2]; H37RV): 0.26 ± 0.01 µg/mL (≈ 1.9 µM)
CC(C)=CCC/C(C)=C/CO [Geraniol]	12.5 µg/mL (≈ 81 µM)	12.5 µg/mL (≈ 81 µM)	Antimycobacterial activity, M. tuberculosis MIC [2, 6]: 12.50 ± 0.00^EFG μg/mL
C=C(C)[C@H]1CC=C(C)CC1 [(+) Limonene]	41.7 ± 14.4 µg/mL (≈ 306 µM)	25 µg/mL (≈ 184 µM)	
C=CCc1ccc(O)c(OC)c1 [Eugenol]	20.8 ± 7.22 µg/mL (≈ 127 µM)	25 µg/mL (≈ 152 µM)	
Cc1ccc(C(C)C)cc1 [p-Cymene]	91.7 ± 14.4 µg/mL (≈ 683 µM)	91.7 ± 14.4 µg/mL (≈ 683 µM)	CC50 at 24 h [3]: 1170 ± 44.3 µg/mL (≈ 8690 µM); CC90 at 24 h [3]: 2200 ± 86.6 µg/mL (≈ 16400 µM)
O=C(O)/C=C/c1ccccc1 [Cinnamic Acid]	7.29 µg/mL (≈ 49.2 µM)	8.16 µg/mL (≈ 55.1 µM)	Antimycobacterial activity, M. bovis MIC [1]: 7.29 ± 4.73^DE μg/mL; Antimycobacterial activity, M. tuberculosis MIC [2, 6]: 8.16 ± 3.32^FG μg/mL
C=CCc1ccc(OC)cc1 [Estragole]	25 µg/mL (≈ 169 µM)	20.8 ± 7.22 µg/mL (≈ 141 µM)	
CC(C)c1ccc(C=O)cc1 [Cuminaldehyde]	20.8 ± 7.22 µg/mL (≈ 141 µM)	10.4 ± 3.61 µg/mL (≈ 70.2 µM)	
CC(C)=CCC/C(C)=C/CC/C(C)=C/CC/C(C)=C/CO [Geranylgeraniol]			MIC against M. tuberculosis [5]: 1.56 µg/mL (≈ 5.37 µM)
C=C1CCC2(C(C)C)CC12 (centres unmarked) [Sabinene]	25 µg/mL (≈ 184 µM)	33.3 ± 14.4 µg/mL (≈ 245 µM)	
CC(=O)OC/C=C(\C)CC/C=C(\C)CC/C=C(\C)CCC=C(C)C [geranylgeranyl acetate]			MIC against M. tuberculosis [5]: 3.13 µg/mL
CC12CCC(CC1=O)C2(C)C (centres unmarked) [Camphor]	50 µg/mL (≈ 328 µM)	41.7 ± 14.4 µg/mL (≈ 274 µM)	
CC(C)=CCCC(C)CCO (stereo not drawn) [β-Citronellol]	10.4 ± 3.61 µg/mL (≈ 66.6 µM)	6.25 µg/mL (≈ 40 µM)	Antimycobacterial activity, M. tuberculosis MIC [2, 6]: 6.25 ± 0.00^FG μg/mL
C/C=C/c1ccc(OC)cc1 [t-Anethole]	58.3 ± 14.4 µg/mL (≈ 394 µM)	20.8 ± 7.22 µg/mL (≈ 141 µM)	
C=C(C)[C@@H]1CC=C(C)C(=O)C1 [(+) Carvone]	41.3 ± 15 µg/mL (≈ 275 µM)	20.8 ± 7.22 µg/mL (≈ 139 µM)	
Cc1ccc(C(C)C)c(O)c1 [Thymol]	2.02 µg/mL (≈ 13.4 µM)	0.78 µg/mL (≈ 5.19 µM)	Antimycobacterial activity, M. bovis MIC [1]: 2.02 ± 0.88^E μg/mL; CC50 concentration higher than the concentration needed for mycobacterial elimination [4]: approximately 500 fold; CC50 at 24 h [3]: 483 ± 28.9 µg/mL (≈ 3220 µM); CC90 at 24 h [3]: 1130 ± 115 µg/mL (≈ 7540 µM); Antimycobacterial activity, M. tuberculosis MIC [2, 6]: 0.78 ± 0.01^G μg/mL
CC1=CC=C(C(C)C)CC1 [α-Terpinene]	20.8 ± 7.22 µg/mL (≈ 153 µM)	10.4 ± 3.61 µg/mL (≈ 76.4 µM)	
C=CC(C)(O)CCC=C(C)C (centres unmarked) [Linalool]	41.7 ± 14.4 µg/mL (≈ 270 µM)	33.3 ± 14.4 µg/mL (≈ 216 µM)	
